Counter-ions that a name gives are not always drawn. Like-named read-outs stand apart in the source and are kept apart here.
Experiments:
[1] = biological target: T1, human CYP2D6 (Homo sapiens, UniProt P10635); experiment: biochemical
[2] = biological target: T2, human CYP2C9 (Homo sapiens, UniProt P11712); conditions: for CYP2C9 Efficacy (in parenthesis): human
[3] = biological target: Photinus pyralis (firefly) luciferase (Photinus pyralis, UniProt P08659); experiment: biochemical; format: biochemical
Sequence of Photinus pyralis (firefly) luciferase (P08659 whole entry): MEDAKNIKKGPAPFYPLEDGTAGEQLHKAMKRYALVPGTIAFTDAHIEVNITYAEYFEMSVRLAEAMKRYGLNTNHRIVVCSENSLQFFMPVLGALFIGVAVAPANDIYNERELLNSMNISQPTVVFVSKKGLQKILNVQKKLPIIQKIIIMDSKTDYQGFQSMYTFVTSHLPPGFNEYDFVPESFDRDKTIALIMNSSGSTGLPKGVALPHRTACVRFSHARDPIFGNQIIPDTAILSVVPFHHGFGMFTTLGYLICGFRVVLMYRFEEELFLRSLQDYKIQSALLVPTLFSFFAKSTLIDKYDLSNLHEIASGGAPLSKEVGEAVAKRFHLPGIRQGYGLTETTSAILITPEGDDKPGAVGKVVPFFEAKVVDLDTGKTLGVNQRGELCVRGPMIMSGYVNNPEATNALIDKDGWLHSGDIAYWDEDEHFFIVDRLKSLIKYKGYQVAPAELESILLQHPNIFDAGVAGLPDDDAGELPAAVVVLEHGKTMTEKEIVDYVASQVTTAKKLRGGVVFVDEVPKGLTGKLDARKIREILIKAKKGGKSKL

[4] = biological target: CYP3A4 (Homo sapiens, UniProt P08684)
Sequence of CYP3A4 (P08684 whole entry): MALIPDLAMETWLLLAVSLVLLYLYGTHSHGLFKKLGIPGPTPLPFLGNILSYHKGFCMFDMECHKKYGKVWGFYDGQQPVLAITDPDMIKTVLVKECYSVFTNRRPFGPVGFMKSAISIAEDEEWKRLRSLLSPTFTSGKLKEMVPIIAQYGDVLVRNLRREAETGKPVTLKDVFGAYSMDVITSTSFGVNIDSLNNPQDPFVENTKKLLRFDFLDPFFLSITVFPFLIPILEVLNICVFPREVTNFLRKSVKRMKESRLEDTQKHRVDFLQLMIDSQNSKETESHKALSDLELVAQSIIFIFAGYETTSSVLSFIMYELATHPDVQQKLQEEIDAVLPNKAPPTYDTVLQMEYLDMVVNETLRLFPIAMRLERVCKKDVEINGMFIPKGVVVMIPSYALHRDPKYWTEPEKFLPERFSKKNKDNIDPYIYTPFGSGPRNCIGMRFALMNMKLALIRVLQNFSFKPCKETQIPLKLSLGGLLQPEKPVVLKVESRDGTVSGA

[5] = biological target: T1, human CYP2D6
[6] = biological target: T3, human CYP1A2 (Homo sapiens, UniProt P05177); experiment: biochemical
T3 sequence (P05177 1-516): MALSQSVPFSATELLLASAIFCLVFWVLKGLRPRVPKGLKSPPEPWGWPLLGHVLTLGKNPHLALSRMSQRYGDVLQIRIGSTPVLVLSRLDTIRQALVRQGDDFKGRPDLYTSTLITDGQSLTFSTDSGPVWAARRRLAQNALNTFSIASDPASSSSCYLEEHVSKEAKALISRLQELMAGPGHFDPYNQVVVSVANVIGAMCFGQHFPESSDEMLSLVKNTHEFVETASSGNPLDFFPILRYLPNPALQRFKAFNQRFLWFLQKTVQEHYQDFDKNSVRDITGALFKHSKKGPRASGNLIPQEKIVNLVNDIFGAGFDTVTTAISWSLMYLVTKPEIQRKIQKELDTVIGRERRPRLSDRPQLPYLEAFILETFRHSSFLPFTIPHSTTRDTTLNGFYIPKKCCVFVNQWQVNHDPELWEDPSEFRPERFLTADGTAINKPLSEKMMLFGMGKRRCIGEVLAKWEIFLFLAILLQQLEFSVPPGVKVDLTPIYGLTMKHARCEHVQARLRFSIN

[7] = biological target: T4, human CYP2C19 (Homo sapiens, UniProt P33261); experiment: biochemical
T4 sequence (P33261 whole entry): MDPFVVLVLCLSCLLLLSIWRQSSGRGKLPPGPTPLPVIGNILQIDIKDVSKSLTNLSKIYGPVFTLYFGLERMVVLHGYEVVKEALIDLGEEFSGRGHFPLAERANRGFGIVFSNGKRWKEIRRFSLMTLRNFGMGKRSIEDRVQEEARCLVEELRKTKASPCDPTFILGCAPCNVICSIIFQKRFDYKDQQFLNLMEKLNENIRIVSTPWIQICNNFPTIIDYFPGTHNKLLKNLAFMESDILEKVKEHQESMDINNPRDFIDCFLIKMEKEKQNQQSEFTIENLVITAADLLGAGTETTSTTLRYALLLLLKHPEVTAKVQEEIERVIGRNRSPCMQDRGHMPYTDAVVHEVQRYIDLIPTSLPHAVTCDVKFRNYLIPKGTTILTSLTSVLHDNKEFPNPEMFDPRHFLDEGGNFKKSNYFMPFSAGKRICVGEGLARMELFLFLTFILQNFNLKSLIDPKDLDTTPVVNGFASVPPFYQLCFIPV

[8] = biological target: T4, human CYP2C19; conditions: for CYP2C19 Efficacy (in parenthesis): human
[9] = biological target: T2, human CYP2C9; experiment: biochemical
[10] = biological target: T3, human CYP1A2; conditions: human
[11] = CYP2D6 IC50 (half-maximal inhibitory concentration)
[12] = CYP2C9 IC50 (half-maximal inhibitory concentration)
[13] = CYP1A2 IC50 (half-maximal inhibitory concentration)
[14] = CYP2C19 IC50 (half-maximal inhibitory concentration)

T2 sequence (P11712 whole entry): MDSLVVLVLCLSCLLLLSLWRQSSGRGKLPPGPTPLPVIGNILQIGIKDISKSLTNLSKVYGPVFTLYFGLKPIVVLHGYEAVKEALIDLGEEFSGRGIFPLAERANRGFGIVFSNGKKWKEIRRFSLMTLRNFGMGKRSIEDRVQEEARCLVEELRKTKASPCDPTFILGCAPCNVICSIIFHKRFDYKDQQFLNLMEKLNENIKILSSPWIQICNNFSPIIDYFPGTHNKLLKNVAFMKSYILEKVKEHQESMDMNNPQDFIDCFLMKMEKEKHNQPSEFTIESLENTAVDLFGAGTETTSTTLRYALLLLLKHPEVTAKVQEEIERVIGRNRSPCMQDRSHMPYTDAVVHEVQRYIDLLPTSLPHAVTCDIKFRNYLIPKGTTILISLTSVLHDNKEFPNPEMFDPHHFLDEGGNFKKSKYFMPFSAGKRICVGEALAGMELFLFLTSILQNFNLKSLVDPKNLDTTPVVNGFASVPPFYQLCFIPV
T1 sequence (P10635 whole entry): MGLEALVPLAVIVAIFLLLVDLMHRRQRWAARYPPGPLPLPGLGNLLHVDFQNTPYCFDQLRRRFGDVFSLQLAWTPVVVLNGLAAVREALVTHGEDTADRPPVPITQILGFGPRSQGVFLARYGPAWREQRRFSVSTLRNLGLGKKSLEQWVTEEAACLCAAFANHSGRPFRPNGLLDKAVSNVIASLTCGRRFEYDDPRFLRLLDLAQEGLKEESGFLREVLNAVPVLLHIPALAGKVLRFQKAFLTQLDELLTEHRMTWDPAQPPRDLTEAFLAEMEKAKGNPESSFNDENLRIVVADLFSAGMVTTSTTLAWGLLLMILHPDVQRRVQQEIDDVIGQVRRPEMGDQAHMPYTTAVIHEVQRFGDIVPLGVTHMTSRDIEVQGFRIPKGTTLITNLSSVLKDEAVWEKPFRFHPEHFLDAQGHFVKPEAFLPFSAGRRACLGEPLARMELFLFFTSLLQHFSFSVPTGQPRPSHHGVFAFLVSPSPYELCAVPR

SMILES: OC(CN1CCC(Cc2ccc(F)cc2)CC1)c1ccc(Cl)cc1 (centres unmarked) [Eliprodil]
- AC50 ([1]; CYP2D6 AC50 (half-maximal activity concentration)): 120 nM
- IC50 [1, 11]: 120 nM

SMILES: c1ccc2cc3ccccc3cc2c1 [Anthracene]
- CYP2C9 IC50 [2]: Inactive
- Luciferase IC50 [3]: Inactive
- CYP3A4 IC50 [4]: Inactive
- CYP2D6 IC50 [5]: Inactive
- IC50 ([6]; CYP1A2 IC50): 500 nM
- IC50 ([7]; CYP2C19 IC50): 67000 nM

SMILES: c1ccc2cc3c(cc2c1)-c1cccc2cccc-3c12 [Benzo(k)fluoranthene]
- CYP2C9 IC50 [2]: Inactive
- CYP2C19 IC50 [8]: Inactive
- Luciferase IC50 [3]: Inactive
- CYP3A4 IC50 [4]: Inactive
- CYP2D6 IC50 [5]: Inactive
- IC50 ([6]; CYP1A2 IC50): 170 nM

SMILES: CC[C@@H]([C@H](C)O)n1ncn(-c2ccc(N3CCN(c4ccc(OC[C@@H]5CO[C@@](Cn6cncn6)(c6ccc(F)cc6F)C5)cc4)CC3)cc2)c1=O [Posaconazole]
- IC50 [1]: 11300 ± 3600 nM

SMILES: c1ccc2cc3c4ccccc4c4ccccc4c3cc2c1 [Dibenz[a,c]anthracene]
- CYP2C9 IC50 [2]: Inactive
- CYP2C19 IC50 [8]: Inactive
- Luciferase IC50 [3]: Inactive
- CYP3A4 IC50 [4]: Inactive
- CYP2D6 IC50 [5]: Inactive
- IC50 ([6]; CYP1A2 IC50): 210 nM

SMILES: Cc1nc(N)nc(N)c1-c1ccc(Cl)c(Cl)c1 [Methodichlorophen]
- AC50 [1]: 2300 ± 410 nM

SMILES: c1ccc2c(c1)-c1ccc3ccc4cccc5cc-2c1c3c45 [Indeno(1,2,3-cd)pyrene]
- IC50 [9, 12]: 5500 nM
- IC50 [3]: 12900 nM
- CYP3A4 IC50 (half-maximal inhibitory concentration) [4]: Inactive
- CYP2D6 IC50 (half-maximal inhibitory concentration) [5]: Inactive
- IC50 [6, 13]: 180 nM
- IC50 [7, 14]: 15500 nM

SMILES: CCOc1ccccc1OCCN[C@H](C)Cc1ccc(OC)c(S(N)(=O)=O)c1 [Tamsulosin hydrochloride]
- IC50 [1, 11]: 12800 nM

SMILES: CC(CCc1ccccc1)NCC(O)c1ccc(O)c(C(N)=O)c1 (centres unmarked) [labetalol, reference compound]
- IC50 [1]: 600 nM

SMILES: c1cc2ccc3ccc4ccc5cccc6c(c1)c2c3c4c56 [Benzo(g,h,i)perylene]
- CYP2C9 IC50 [2]: Inactive
- CYP2C19 IC50 [8]: Inactive
- Luciferase IC50 [3]: Inactive
- CYP3A4 IC50 [4]: Inactive
- CYP2D6 IC50 [5]: Inactive
- IC50 ([6]; CYP1A2 IC50): 160 nM

SMILES: CC[N+](C)(CC)CCOC(=O)C(O)(c1ccccc1)C1CCCCC1 (centres unmarked) [Oxyphenonium bromide]
- IC50 [1, 11]: 870 nM

SMILES: ClC(Cl)=C(c1ccc(Cl)cc1)c1ccc(Cl)cc1 [p,p'-DDE]
- IC50 [9, 12]: 12900 nM
- CYP2C9 Efficacy (in parenthesis) [2]: 12.86 ± 6.41 (-84 ± 11) %
- CYP2C19 Efficacy (in parenthesis) [8]: 0.57 ± 0.14 (-135 ± 7) %
- Luciferase IC50 (half-maximal inhibitory concentration) [3]: Inactive
- CYP3A4 IC50 (half-maximal inhibitory concentration) [4]: Inactive
- CYP2D6 IC50 (half-maximal inhibitory concentration) [5]: Inactive
- IC50 [6, 13]: 3650 nM
- IC50 [7, 14]: 570 nM
- CYP1A2 Efficacy (in parenthesis) [10]: 3.65 ± 1.85 (-100 ± 2) %

SMILES: O=C1c2ccccc2C(=O)c2ccccc21 [Anthraquinone]
- CYP2C9 IC50 (half-maximal inhibitory concentration) [2]: Inactive
- CYP2C19 IC50 (half-maximal inhibitory concentration) [8]: Inactive
- Luciferase IC50 (half-maximal inhibitory concentration) [3]: Inactive
- CYP3A4 IC50 (half-maximal inhibitory concentration) [4]: Inactive
- CYP2D6 IC50 (half-maximal inhibitory concentration) [5]: Inactive
- IC50 [6, 13]: 230 nM
- CYP1A2 Efficacy (in parenthesis) [10]: 0.23 ± 0.06 (-96 ± 3) %

SMILES: Brc1cc2ccccc2c2ccccc12 [9-Bromophenanthrene]
- IC50 [9, 12]: 56800 nM
- CYP2C9 Efficacy (in parenthesis) [2]: 56.84 ± 0 (-53 ± 6) %
- CYP2C19 Efficacy (in parenthesis) [8]: 29.42 ± 9.47 (-107 ± 13) %
- Luciferase IC50 (half-maximal inhibitory concentration) [3]: Inactive
- CYP3A4 IC50 (half-maximal inhibitory concentration) [4]: Inactive
- CYP2D6 IC50 (half-maximal inhibitory concentration) [5]: Inactive
- IC50 [6, 13]: 320 nM
- IC50 [7, 14]: 29400 nM
- CYP1A2 Efficacy (in parenthesis) [10]: 0.32 ± 0.09 (-101 ± 1) %

SMILES: CC(C)(Cc1c[nH]c2ccccc12)NCC(O)COc1ccccc1C#N (centres unmarked) [Bucindolol]
- CYP2C9 IC50 (half-maximal inhibitory concentration) [2]: Inactive
- CYP2C19 IC50 (half-maximal inhibitory concentration) [8]: Inactive
- Luciferase IC50 (half-maximal inhibitory concentration) [3]: Inactive
- CYP3A4 IC50 (half-maximal inhibitory concentration) [4]: Inactive
- IC50 [6]: 29200 ± 2380 nM

SMILES: CC(CN(C)C)CN1c2ccccc2CCc2ccccc21 (centres unmarked) [trimipramine, reference compound]
- IC50 ([1]; IC50 CYP2D6 assay): 3100 nM

SMILES: c1ccc2nc(N3CCNCC3)ccc2c1 [Quipazine maleate]
- CYP2C9 IC50 [2]: Inactive
- CYP2C19 IC50 [8]: Inactive
- Luciferase IC50 [3]: Inactive
- CYP3A4 IC50 [4]: Inactive
- CYP2D6 IC50 [5]: Inactive
- IC50 ([6]; CYP1A2 IC50): 960 nM

SMILES: O=C1c2ccccc2C(=O)c2cc(Cl)ccc21 [2-Chloroanthraquinone]
- CYP2C9 IC50 (half-maximal inhibitory concentration) [2]: Inactive
- CYP2C19 IC50 (half-maximal inhibitory concentration) [8]: Inactive
- Luciferase IC50 (half-maximal inhibitory concentration) [3]: Inactive
- CYP3A4 IC50 (half-maximal inhibitory concentration) [4]: Inactive
- CYP2D6 IC50 (half-maximal inhibitory concentration) [5]: Inactive
- IC50 [6]: 110 ± 30 nM

SMILES: Brc1c2ccccc2c(Br)c2ccccc12 [9,10-Dibromoanthracene]
- CYP2C9 IC50 (half-maximal inhibitory concentration) [2]: Inactive
- CYP2C19 IC50 (half-maximal inhibitory concentration) [8]: Inactive
- Luciferase IC50 (half-maximal inhibitory concentration) [3]: Inactive
- CYP3A4 IC50 (half-maximal inhibitory concentration) [4]: Inactive
- CYP2D6 IC50 (half-maximal inhibitory concentration) [5]: Inactive
- IC50 [6, 13]: 410 nM
- CYP1A2 Efficacy (in parenthesis) [10]: 0.41 ± 0.27 (-85 ± 6) %

SMILES: Nc1c(Br)cc(Br)c2c1C(=O)c1ccccc1C2=O [1-Amino-2,4-dibromoanthraquinone]
- CYP2C9 IC50 (half-maximal inhibitory concentration) [2]: Inactive
- CYP2C19 IC50 (half-maximal inhibitory concentration) [8]: Inactive
- Luciferase IC50 (half-maximal inhibitory concentration) [3]: Inactive
- CYP3A4 IC50 (half-maximal inhibitory concentration) [4]: Inactive
- CYP2D6 IC50 (half-maximal inhibitory concentration) [5]: Inactive
- IC50 [6, 13]: 140 nM
- CYP1A2 Efficacy (in parenthesis) [10]: 0.14 ± 0.03 (-99 ± 12) %

SMILES: c1ccc2c(c1)ccc1c3ccccc3ccc21 [Chrysene]
- CYP2C9 IC50 [2]: Inactive
- CYP2C19 IC50 [8]: Inactive
- Luciferase IC50 [3]: Inactive
- CYP3A4 IC50 [4]: Inactive
- CYP2D6 IC50 [5]: Inactive
- IC50 ([6]; CYP1A2 IC50): 650 nM

SMILES: N#Cc1c2ccccc2cc2ccccc12 [9-Cyanoanthracene]
- IC50 ([9]; CYP2C9 IC50): 6160 nM
- Luciferase IC50 [3]: Inactive
- CYP3A4 IC50 [4]: Inactive
- CYP2D6 IC50 [5]: Inactive
- IC50 ([6]; CYP1A2 IC50): 220 nM
- IC50 ([7]; CYP2C19 IC50): 16000 nM

SMILES: Brc1c(Br)c(Br)c(Br)c(Br)c1Br [Hexabromobenzene]
- CYP2C9 IC50 (half-maximal inhibitory concentration) [2]: Inactive
- CYP2C19 IC50 (half-maximal inhibitory concentration) [8]: Inactive
- Luciferase IC50 (half-maximal inhibitory concentration) [3]: Inactive
- CYP3A4 IC50 (half-maximal inhibitory concentration) [4]: Inactive
- CYP2D6 IC50 (half-maximal inhibitory concentration) [5]: Inactive
- IC50 [6, 13]: 90 nM
- CYP1A2 Efficacy (in parenthesis) [10]: 0.09 ± 0.01 (-45 ± 9) %

SMILES: CCN(CC)C(=O)SCc1ccc(Cl)cc1 [Thiobencarb]
- IC50 [9, 12]: 25200 nM
- CYP2C9 Efficacy (in parenthesis) [2]: 25.18 ± 0 (-91 ± 2) %
- CYP2C19 Efficacy (in parenthesis) [8]: 0.66 ± 0.12 (-124 ± 7) %
- IC50 [3]: 38500 nM
- CYP3A4 IC50 (half-maximal inhibitory concentration) [4]: Inactive
- CYP2D6 IC50 (half-maximal inhibitory concentration) [5]: Inactive
- IC50 [6, 13]: 15900 nM
- IC50 [7, 14]: 660 nM
- CYP1A2 Efficacy (in parenthesis) [10]: 15.89 ± 0 (-91 ± 6) %
